Data set [1] is described as follows: Density of the pure solvent. The format is physicochemical. The procedure: Wt % of isobutanol in each layer was reported. The density of the pure solvent was also reported. […] Wt. iBuOH (mg) was calculated by wt % i-BuOH×0.5×density of pure solvent. For the aqueous solutions the density of both the pure water and salt solutions were assumed to be 1.0 g/ml. Kd was calculated both from concentration of i-BuOH in the organic/concentration of i-BuOH in the aqueous layer. It was calculated both from the w/w data and w/v data. The sum of the amounts of isobutanol found in both layers was calculated as a check on the data.

For data set [2], the system named is ethanologen (Ethanol Red).

The text below walks through data of patent US9469584B2, “Method for producing butanol using extractive fermentation” (Butamax Advanced Biofuels LLC, priority 2013, dated 2016).

The density is the mass of a sample divided by its volume.

Where a name gives a salt, the structure may show the parent alone. Read-outs that look alike come from different tables or passages of the source.

Compound `CCCCCCOCCCCCC` [Hexyl Ether] gave a density in data set [1] (pure solvent) of 0.793 g/mL.
The compound `CCCCC(CC)CO` (stereo not drawn) [2-Ethyl-1-hexanol] came in with a density in data set [1] (pure solvent) of 0.833 g/mL.
Still for that read-out and setting: to `CCCCCCCCOC(=O)c1ccc(C(=O)OCCCCCCCC)cc1` [dioctyl terephthalate] belongs 0.986 g/mL; to `CCCCCCCCCCCC(=O)OCCCC` [butyl dodecanoate], 0.855 g/mL; to `CCCCCCC(CO)CCCC` (stereo not drawn) [2-butyl-1-octanol], 0.833 g/mL.
The compound nonyl phenol returned a density in data set [1] of 0.937 g/mL. In data set [2], the “Glucose (g/L) 5.00 hrs Run 1” value was 20.3/20.3 g/L, the “Glucose (g/L) 5.00 hrs Run 2” value is recorded as 20.3/20.3 g/L, the “Glucose (g/L) […] Run 1” value is 20.6/20.0 g/L and the “Glucose (g/L) […] Run 2” value is 20.6/20.0 g/L.
With `CCCCCCCCOC(=O)c1ccccc1C(=O)OCCCCCCCC` [Dioctyl phthlate], the density in data set [1] worked out at 0.985 g/mL.
In the case of `CCCCC(CC)COC(=O)CCCCCCCCC(=O)OCC(CC)CCCC` (stereo not drawn) [bis(2-ethylhexyl)sebacate], the density in data set [1] (pure solvent) turned out to be 0.914 g/mL.
In data set [1] (pure solvent), `CCCCC(CC)COP(=O)(O)OCC(CC)CCCC` (stereo not drawn) [Bis(2-ethylhexyl) phosphate] registered a density of 0.965 g/mL. Besides, in data set [2], the “Glucose (g/L) 5.00 hrs Run 1” value was 20.3/20.6 g/L, the “Glucose (g/L) 5.00 hrs Run 2” value is on record as 20.3/20.6 g/L, the “Glucose (g/L) […] Run 1” value is 20.0/20.2 g/L and the “Glucose (g/L) […] Run 2” value was 20.0/20.2 g/L.
With `CCCCCl` [chlorobutane], the density in data set [1] amounted to 0.886 g/mL.
In the case of Xylene, the density in data set [1] was 0.879 g/mL.
Compound `CC(CCO)CC(C)(C)C` (stereo not drawn) [3,5,5-trimethyl-1-hexanol] registered a density in data set [1] (pure solvent) of 0.824 g/mL.
On the same count and under the same terms, to `CCCCCCCC/C=C\CCCCCCCCO` [oleyl alcohol, reference compound] belongs 0.849 g/mL; to `CC1COC(=O)O1` (stereo not drawn) [propylene carbonate], 1.2 g/mL.
For the compound `CCCCCCOC(=O)c1ccccc1O` [hexyl salicylate], the density in data set [1] (pure solvent) was found to be 1.04 g/mL.
On to `CCCCC(CC)COC(=O)CCCCC(=O)OCC(CC)CCCC` (stereo not drawn) [bis(2-ethylhexyl)adipate], for which the density in data set [1] (pure solvent) was found to be 0.925 g/mL. Further, in data set [2] (Saccharomyces cerevisiae), the “Glucose (g/L) 5.50 hrs Run 1” value is reported as 0.0/0.0 g/L, the “Glucose (g/L) 5.50 hrs Run 2” value is 0.0/0.0 g/L, the “Glucose (g/L) […] Run 1” value is recorded as 0.0/0.0 g/L and the “Glucose (g/L) […] Run 2” value is on record as 0.0/0.0 g/L.
Turning to `CC(C)=CCCC(C)=CCCC(C)=CCO` [Farnesol], in data set [1] (pure solvent), the density was found to be 0.89 g/mL.
On the same count and under the same terms, in the case of `CCCCCCCCC(CO)CCCCCC` (stereo not drawn) [2-Hexyl-1-decanol (Isofol 16), 2-Hexyl-1-decanol] it was 0.836 g/mL; in that of `CC(C)CCOCCC(C)C` [i-Amyl Ether], 0.78 g/mL; in that of `CCCCC(CC)COC(=O)/C=C\C(=O)OCC(CC)CCCC` (stereo not drawn) [Bis(2-ethylhexyl) maleate], 0.944 g/mL.
`CC(C)CCCC(C)CCO` (stereo not drawn) [3,7-dimethyl-1-octanol] returned a density in data set [1] (pure solvent) of 0.828 g/mL. This density and that of the compound before are within 1.5-fold of each other.
